Starred links: 1 amine or outer side, 2 acyl side, 3 side chain; linkers in the order of their positions; H or OH if unused. Residues, ends and D or L forms follow the SMILES beside them. *: point of attachment. CO = O=C([*:1])[*:2]; N(Me)OMe = CON(C)*
Tests used:
[1] = Inhibition of NDM-1 (unknown origin); set-up: species or system Homo sapiens
[2] = Inhibition of NDM-1 (unknown origin) using imipenem as substrate by spectrophotometric assay; set-up: species or system Homo sapiens
Adenosine deaminase = target: T1, Adenosine deaminase (Homo sapiens, UniProt P00813); experiment: Binding affinity to ADA (unknown origin) assessed as inhibition constant
T1 sequence (P00813 whole entry): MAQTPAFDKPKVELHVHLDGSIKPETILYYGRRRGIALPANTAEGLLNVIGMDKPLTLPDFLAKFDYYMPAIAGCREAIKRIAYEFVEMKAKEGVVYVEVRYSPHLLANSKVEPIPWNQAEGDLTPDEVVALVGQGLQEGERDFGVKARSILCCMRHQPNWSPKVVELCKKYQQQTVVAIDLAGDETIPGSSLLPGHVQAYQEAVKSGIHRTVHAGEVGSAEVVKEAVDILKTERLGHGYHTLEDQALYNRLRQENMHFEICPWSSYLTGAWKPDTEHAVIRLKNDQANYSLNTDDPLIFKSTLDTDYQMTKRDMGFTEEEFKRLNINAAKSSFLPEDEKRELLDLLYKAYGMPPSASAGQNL

Lethal factor [3] = target: T2, Lethal factor (Bacillus anthracis, UniProt P15917); experiment: Inhibition of Bacillus anthracis lethal factor
T2 sequence (P15917 whole entry): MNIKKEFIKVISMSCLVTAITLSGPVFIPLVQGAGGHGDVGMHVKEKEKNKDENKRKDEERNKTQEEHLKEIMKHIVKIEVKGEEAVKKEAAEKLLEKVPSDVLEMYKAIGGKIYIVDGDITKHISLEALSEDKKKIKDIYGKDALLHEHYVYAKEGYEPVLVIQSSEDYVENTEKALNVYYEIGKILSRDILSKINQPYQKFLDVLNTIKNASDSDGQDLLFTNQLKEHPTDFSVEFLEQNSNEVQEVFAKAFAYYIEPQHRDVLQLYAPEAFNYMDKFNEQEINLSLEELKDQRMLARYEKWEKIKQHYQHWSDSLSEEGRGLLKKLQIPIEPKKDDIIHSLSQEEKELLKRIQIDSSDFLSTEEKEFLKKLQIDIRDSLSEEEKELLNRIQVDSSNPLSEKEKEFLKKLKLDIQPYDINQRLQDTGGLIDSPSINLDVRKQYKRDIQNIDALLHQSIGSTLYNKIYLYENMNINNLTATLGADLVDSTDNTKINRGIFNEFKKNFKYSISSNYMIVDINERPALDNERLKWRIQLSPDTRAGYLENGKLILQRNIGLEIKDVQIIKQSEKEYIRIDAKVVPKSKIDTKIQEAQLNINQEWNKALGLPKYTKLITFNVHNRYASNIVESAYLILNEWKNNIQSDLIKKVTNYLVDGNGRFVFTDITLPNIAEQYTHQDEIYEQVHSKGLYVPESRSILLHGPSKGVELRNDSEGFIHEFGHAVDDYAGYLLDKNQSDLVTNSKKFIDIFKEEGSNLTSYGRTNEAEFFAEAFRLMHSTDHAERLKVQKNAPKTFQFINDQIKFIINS

Lethal factor [4] = target: T2, Lethal factor; experiment: Binding affinity to Bacillus anthracis lethal factor assessed as inhibition constant
[5] = Inhibition of farnesyltransferase (unknown origin); set-up: species or system Homo sapiens
[6] = Inhibition of VIM-2 (unknown origin); set-up: species or system Homo sapiens
[7] = target: T3, Disintegrin and metalloproteinase domain-containing protein 10 (Homo sapiens, UniProt O14672); experiment: Inhibition of human ADAM10 using (biotin-SPLAQAVRSSSRTP(3H)S-NH2) as a substrate by streptavidin-coated scintillation proximity assay
T3 sequence (O14672 whole entry): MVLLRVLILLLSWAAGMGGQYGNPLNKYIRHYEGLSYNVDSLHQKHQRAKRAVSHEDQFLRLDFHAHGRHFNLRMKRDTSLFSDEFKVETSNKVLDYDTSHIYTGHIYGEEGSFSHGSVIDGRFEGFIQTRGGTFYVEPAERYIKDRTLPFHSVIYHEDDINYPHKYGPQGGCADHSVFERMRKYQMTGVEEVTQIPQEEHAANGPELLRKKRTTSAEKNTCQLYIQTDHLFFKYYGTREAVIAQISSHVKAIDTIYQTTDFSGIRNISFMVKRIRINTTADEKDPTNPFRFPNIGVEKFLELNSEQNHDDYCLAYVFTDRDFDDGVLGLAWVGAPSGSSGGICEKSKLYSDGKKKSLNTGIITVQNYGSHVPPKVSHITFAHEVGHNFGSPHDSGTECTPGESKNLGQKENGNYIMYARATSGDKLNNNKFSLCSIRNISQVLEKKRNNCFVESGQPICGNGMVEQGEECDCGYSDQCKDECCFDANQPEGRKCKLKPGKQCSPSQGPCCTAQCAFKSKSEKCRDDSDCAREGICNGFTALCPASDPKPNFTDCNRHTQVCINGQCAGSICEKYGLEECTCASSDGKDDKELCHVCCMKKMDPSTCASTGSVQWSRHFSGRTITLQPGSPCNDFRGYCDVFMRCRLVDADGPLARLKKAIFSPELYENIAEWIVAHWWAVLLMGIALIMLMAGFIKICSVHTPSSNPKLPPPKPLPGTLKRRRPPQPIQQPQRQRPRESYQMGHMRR

[8] = target: Disintegrin and metalloproteinase domain-containing protein 17 (Homo sapiens, UniProt P78536); experiment: Inhibition of human ADAM17
Disintegrin and metalloproteinase domain-containing protein 17, sequence (P78536 whole entry, the tested form may be a part): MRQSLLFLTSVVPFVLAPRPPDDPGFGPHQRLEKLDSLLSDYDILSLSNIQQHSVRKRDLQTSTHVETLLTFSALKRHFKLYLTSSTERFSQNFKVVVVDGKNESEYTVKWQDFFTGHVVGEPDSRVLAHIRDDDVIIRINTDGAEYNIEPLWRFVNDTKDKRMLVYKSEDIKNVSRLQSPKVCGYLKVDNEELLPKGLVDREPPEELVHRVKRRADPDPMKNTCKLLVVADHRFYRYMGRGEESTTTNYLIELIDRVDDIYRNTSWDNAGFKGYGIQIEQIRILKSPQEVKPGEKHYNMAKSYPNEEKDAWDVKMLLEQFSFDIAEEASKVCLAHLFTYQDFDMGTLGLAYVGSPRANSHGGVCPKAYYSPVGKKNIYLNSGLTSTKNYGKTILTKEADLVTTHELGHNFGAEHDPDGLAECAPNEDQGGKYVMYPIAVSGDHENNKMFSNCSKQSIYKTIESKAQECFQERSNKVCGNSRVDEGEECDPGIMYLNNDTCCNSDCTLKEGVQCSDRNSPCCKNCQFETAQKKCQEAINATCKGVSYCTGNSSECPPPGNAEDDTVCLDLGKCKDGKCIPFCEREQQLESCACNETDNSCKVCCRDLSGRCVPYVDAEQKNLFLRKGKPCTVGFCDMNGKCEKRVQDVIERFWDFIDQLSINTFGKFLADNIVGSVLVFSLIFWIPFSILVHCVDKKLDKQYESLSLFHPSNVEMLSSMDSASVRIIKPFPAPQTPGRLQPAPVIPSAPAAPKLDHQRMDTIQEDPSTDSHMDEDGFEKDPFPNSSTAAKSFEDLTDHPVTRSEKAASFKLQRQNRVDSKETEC

N[C@@H](CN[C@@H](CN[C@@H](CC(=O)O)C(=O)O)C(=O)O)C(=O)O
IC50 [1]: 7 µM

C[C@@H](CS)C(=O)N1CCC[C@H]1C(=O)O
IC50 [2]: 7.9 nM

CCCCCC[C@H]([C@H](C)O)n1cnc2c(N)ncnc21 [(+)-EHNA]
Ki (Adenosine deaminase): 1 nM

O=C(O[C@@H]1Cc2c(O)cc(O)cc2O[C@@H]1c1cc(O)c(O)c(O)c1)c1cc(O)c(O)c(O)c1 [EPIGALOCATECHIN GALLATE]
IC50 (Lethal factor [3]): 97 nM

CCN(CCCC[C@@H](C[C@@H](OC)c1ccc(F)cc1)C(=O)NO)c1ccc(F)cc1
Ki (Lethal factor [4]): 0.27 nM

CCC(C)[C@@H](CO[C@@H](Cc1ccccc1)C(=O)N[C@@H](CCS(C)(=O)=O)C(=O)O)NC[C@@H](N)CS (some centres not stated)
IC50 [5]: 240 nM

CON(C)C(=O)N[C@@H](CCCNC(=N)N)C(=O)N[C@@H](CC(C)C)C(=O)N[C@H](C(=O)N[C@@H](CCCNC(=N)N)C(=O)O)C(C)C ({N(Me)OMe-CO}-RLVR-OH)
Ki (Lethal factor [4]): 6.4 nM

NC[C@@H]1O[C@H](O[C@H]2[C@@H](O)[C@H](O[C@@H]3[C@@H](O)[C@H](N)C[C@H](N)[C@H]3O[C@H]3O[C@H](CN)[C@@H](O)[C@H](O)[C@H]3N)O[C@@H]2CO)[C@H](N)[C@@H](O)[C@@H]1O [FRAMYCETIN]
Ki (Lethal factor [4]): 7 nM

O=C(O)c1nccn1Cc1ccccc1
IC50 [1]: 66.7 µM | IC50 [6]: 0.45 nM

CNC(=O)[C@@H](NC(=O)C(CCCc1ccccc1)[C@H](C)N(O)C=O)C(C)(C)C (some centres not stated)
IC50 [7]: 5.3 nM | IC50 [8]: 541 nM

From ChEMBL document CHEMBL5150007, “Zinc enzymes in medicinal chemistry” (Eur J Med Chem, 2021)
